Experimental findings from patent publication US11130780B2, “Inhibitors of growth factor activation enzymes” (Washington University, priority 2015, dated 2021) are described below.

What all share (format): biochemical
For one experiment, the target named is thrombin (Homo sapiens, UniProt P00734). The experiment is described as follows: Chromogenic kinetic enzyme assay of thrombin. On the procedure:
(§1) Inhibitors (11-pt serial dilutions, 0-20 μM final concentration) were serially diluted in DMSO (2% DMSO final concentration) and then mixed with recombinant thrombin (0.15 nM final concentration) or Factor Xa (0.35 nM final concentration) in TNC buffer (25 mM Tris, 150 mM NaCl, 5 mM CaCl2, 0.01% TRITON X-100, pH 8) using clear 384 well plates. […] Changes in absorbance at 405 nm were measured over time in a Biotek Synergy 2 plate (Winnoski, Vt.). Using GraphPad Prism version 6.04 software program, (GraphPad Software, San Diego, Calif., www.graphpad.com), a four parameter curve fit was used to determine the inhibitor IC50s from a plot of the mean reaction velocity versus the inhibitor concentration. Ki values were calculated from the IC50 values using the Cheng and Prusoff equation (Ki=IC50/(1+[S]/Km).

A further experiment deals with Factor Xa (Homo sapiens, UniProt P00742). As to the kind of experiment: Chromogenic kinetic enzyme assay of Factor Xa. On the procedure:
as §1

Another experiment addresses T1, HGFA (Homo sapiens, UniProt Q04756).
T1 construct: His6 tag (N); seven amino acid spacer and seven amino acid TEV cleavage site (N); Honey Bee melittin signal peptide (N); made in house; host or cells: High 5 insect cells (baculovirus; virus raised in Sf9)
T1 sequence (Q04756 373-655): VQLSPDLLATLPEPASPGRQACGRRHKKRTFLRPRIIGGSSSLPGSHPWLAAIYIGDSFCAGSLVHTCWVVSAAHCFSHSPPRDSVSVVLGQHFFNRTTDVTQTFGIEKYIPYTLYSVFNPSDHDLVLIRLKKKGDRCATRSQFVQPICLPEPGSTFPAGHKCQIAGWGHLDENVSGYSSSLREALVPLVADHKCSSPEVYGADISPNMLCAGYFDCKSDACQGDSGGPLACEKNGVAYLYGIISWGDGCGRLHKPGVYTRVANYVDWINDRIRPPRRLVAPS
As to the kind of experiment: Fluorescent kinetic enzyme inhibitor assay of HGFA. The note with it: read-out: HGFA Ki. The procedure, abridged: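 Recombinant His-tagged HGFA residues 373-655 from insect cells, with substrate at Km. Inhibitors in 11-point dilutions, 0-20 μM final, 2% DMSO, fluorescence (ex 380/em 460 nm) followed over time at room temperature. IC50 from four-parameter fit of mean velocity, average of three experiments.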

A further experiment deals with T2, hepsin (Homo sapiens, UniProt P05981).
T2 construct: purchased R&D Systems 4776-SE-010
As to the kind of experiment: Fluorescent kinetic enzyme inhibitor assay of hepsin. In a few lines:
(§2)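 Fluorescence (ex 380/em 460 nm) followed kinetically at room temperature; IC50 from four-parameter fit of mean velocity versus concentration, averaged over three experiments.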

A further experiment has as its target T3, matriptase (Homo sapiens, UniProt Q9Y5Y6).
T3 construct: Charles Craik, UCSF (obtained from another laboratory)
T3 sequence (Q9Y5Y6 615-855 limits assumed): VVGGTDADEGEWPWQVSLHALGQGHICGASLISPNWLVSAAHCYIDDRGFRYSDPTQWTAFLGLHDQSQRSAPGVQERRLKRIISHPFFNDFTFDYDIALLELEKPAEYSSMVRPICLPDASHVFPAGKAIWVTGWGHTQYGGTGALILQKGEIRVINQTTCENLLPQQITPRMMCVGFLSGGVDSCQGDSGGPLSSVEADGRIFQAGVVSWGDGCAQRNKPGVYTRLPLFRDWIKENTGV
As to the kind of experiment: Fluorescent kinetic enzyme inhibitor assay of matriptase. The procedure, abridged:
as §2

The mark [1] stands for this setting: Table 6.2, headed Fluorogenic Assay, read-out: Thrombin Ki.
The mark [2] stands for this setting: Table 6.2, headed Fluorogenic Assay, read-out: Factor Xa Ki.
[3] abbreviates: Table 6.1, Fluorogenic Assay, read-out: Hepsin Ki.

Molecules are shown by their SMILES. Read-outs that look alike come from different tables or passages of the source. Starred links: 1 amine or outer side, 2 acyl side, 3 side chain; linkers in the order of their positions; H or OH if unused. Non-standard residues stand in square brackets, D forms with d. Residues, ends and D or L forms follow the SMILES beside them. X1 = N=C(N)NCCC[C@H](N[*:1])C(=O)c1nc2ccc(C(=O)[*:2])cc2s1

T2 sequence (P05981 163-417 limits assumed): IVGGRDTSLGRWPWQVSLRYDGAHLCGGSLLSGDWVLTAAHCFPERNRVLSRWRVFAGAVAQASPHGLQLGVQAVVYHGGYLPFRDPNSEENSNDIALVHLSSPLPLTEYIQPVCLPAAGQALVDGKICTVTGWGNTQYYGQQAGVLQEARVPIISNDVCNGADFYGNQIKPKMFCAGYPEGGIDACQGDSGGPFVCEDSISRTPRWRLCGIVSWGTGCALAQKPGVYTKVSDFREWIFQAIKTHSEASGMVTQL
T2 sequence (P05981 45-162 partner limits assumed): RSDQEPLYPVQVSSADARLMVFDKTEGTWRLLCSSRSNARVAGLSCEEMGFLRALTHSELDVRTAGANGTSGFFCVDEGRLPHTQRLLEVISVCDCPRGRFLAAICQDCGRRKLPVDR
Sequence of Factor Xa (P00742 235-488 limits assumed): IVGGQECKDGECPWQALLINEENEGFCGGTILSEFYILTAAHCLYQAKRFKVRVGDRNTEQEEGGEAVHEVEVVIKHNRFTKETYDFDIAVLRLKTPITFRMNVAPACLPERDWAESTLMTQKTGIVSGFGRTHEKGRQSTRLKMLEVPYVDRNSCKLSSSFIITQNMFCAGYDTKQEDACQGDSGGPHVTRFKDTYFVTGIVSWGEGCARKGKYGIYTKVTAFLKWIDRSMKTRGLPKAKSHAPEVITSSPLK
Sequence of Factor Xa (P00742 41-179 partner limits assumed): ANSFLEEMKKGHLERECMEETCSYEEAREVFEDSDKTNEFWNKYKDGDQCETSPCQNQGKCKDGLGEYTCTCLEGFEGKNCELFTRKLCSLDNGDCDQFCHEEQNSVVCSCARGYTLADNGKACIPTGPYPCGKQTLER

In the case of `CC(C)C[C@H](NC(=O)[C@@H](N)Cc1c[nH]c2ccccc12)C(=O)N[C@@H](CCCNC(=N)N)C(=O)c1nc2ccc(C(=O)N[C@H](C(N)=O)C(C)C)cc2s1` [Compound 7181, H-WLR-kbt V amide], the inhibition constant Ki was found to be 0.041 µM at thrombin (setting [1]); 0.159 µM at Factor Xa (setting [2]); 0.0739 µM at HGFA (Table 6.1, Fluorogenic Assay).
On to `CC(=O)N[C@@H](CO)C(=O)N[C@@H](CCCCN)C(=O)N[C@@H](CC(C)C)C(=O)N[C@@H](CCCNC(=N)N)C(=O)c1nc2ccc(C(=O)N[C@@H](Cc3ccccc3)C(N)=O)cc2s1` [Compound 7125, Ac-SKLR(SEQ ID NO: 10)-Kbt-Phe— NH2] (Ac-SKL[X1]F-NH2), for which the Ki at thrombin (setting [1]) turned out to be 3.64 µM; at Factor Xa (setting [2]) it was 0.544 µM; on hepsin (setting [3]), 0.00014 µM; at HGFA (Table 6.1, Fluorogenic Assay), 0.0173 µM.
For `CC(C)C[C@H](NC(=O)OCC1c2ccccc2-c2ccccc21)C(=O)N[C@@H](CCCNC(=N)N)C(=O)c1nc2ccccc2s1` [Compound 7185-11, Fmoc-LR-kbt], the inhibition constant (Ki) stood at 0.995 µM on thrombin (setting [1]); 0.41 µM on Factor Xa (setting [2]); 0.45 µM on HGFA (Table 6.1, Fluorogenic Assay).
For `CC(C)C[C@H](NC(=O)[C@@H](N)CCCNC(=N)N)C(=O)N[C@@H](CCCNC(=N)N)C(=O)c1nc2ccc(C(=O)N[C@H](C(N)=O)C(C)C)cc2s1` [Compound 7180, H-RLR-kbt V amide] the same measures were 0.548 µM, 0.018 µM and 0.0125 µM.
`CC(C)C[C@H](NC(=O)[C@@H](N)CC(C)C)C(=O)N[C@@H](CCCNC(=N)N)C(=O)c1nc2ccc(C(=O)N[C@H](C(N)=O)C(C)C)cc2s1` [Compound 7182, H-LLR-kbt V amide]: the inhibition constant Ki at thrombin (setting [1]) stood at 0.101 µM; on Factor Xa (setting [2]) it was 0.159 µM; on HGFA (Table 6.1, Fluorogenic Assay), 0.0821 µM.
For `CC(C)C[C@H](NC(=O)[C@@H](N)Cc1c[nH]c2ccccc12)C(=O)N[C@@H](CCCNC(=N)N)C(=O)c1nc2ccccc2s1` [Compound 7170, H-WLR-kbt] the same measures were 0.457 µM, 0.532 µM and 0.104 µM.
For the compound `CC(=O)N[C@@H](CO)C(=O)N[C@@H](CCCCN)C(=O)N[C@@H](CC(C)C)C(=O)N[C@@H](CCCNC(=N)N)C(=O)c1nc2ccc(C(=O)Nc3ccncc3)cc2s1` [Compound 7126, Ac-SKLR(SEQ ID NO: 10)-Kbt-4-pyridinylamide], the inhibition constant (Ki) came to 3.43 µM on thrombin (setting [1]); 0.221 µM at Factor Xa (setting [2]); 0.00014 µM on hepsin (setting [3]); 0.0318 µM on HGFA (Table 6.1, Fluorogenic Assay).
Turning to `CC(C)C[C@H](NC(=O)[C@@H](N)CCCNC(=N)N)C(=O)N[C@@H](CCCNC(=N)N)C(=O)c1nc2ccccc2s1` [Compound 7171, H-RLR-kbt], the Ki on thrombin (setting [1]) worked out at 8.2 µM; on Factor Xa (setting [2]), 0.056 µM; on HGFA (Table 6.1, Fluorogenic Assay), 0.0831 µM.
Regarding `CC(=O)N[C@@H](CO)C(=O)N[C@@H](CCCCN)C(=O)N[C@@H](CC(C)C)C(=O)N[C@@H](CCCNC(=N)N)C(=O)c1nc2ccc(C(=O)N[C@H](C(N)=O)C(C)C)cc2s1` [Compound 7116, Ac-SKLR(SEQ ID NO: 10)-Kbt-Val— NH2] (Ac-SKL[X1]V-NH2), the inhibitory constant (Ki) on thrombin is 4.5 µM; at Factor Xa, 0.385 µM; on hepsin (setting [3]), 0.00019 µM; on HGFA (Table 6.1, Fluorogenic Assay), 0.013 µM.
For `CC(=O)N[C@@H](CO)C(=O)N[C@@H](CCCCN)C(=O)N[C@@H](CC(C)C)C(=O)N[C@@H](CCCNC(=N)N)C(=O)c1nc2ccc(C(=O)O)cc2s1` [Compound 7118, Ac-SKLR(SEQ ID NO: 10)-Kbt-COOH], the inhibitory constant (Ki) is above 2 µM at thrombin (setting [1]); 1.25 µM at Factor Xa (setting [2]); 0.132 µM on HGFA (Table 6.1, Fluorogenic Assay).
For `CC(=O)N[C@@H](Cc1c[nH]c2ccccc12)C(=O)N[C@@H](CC(C)C)C(=O)N[C@@H](Cc1ccccc1)C(=O)N[C@@H](CCCNC(=N)N)C(=O)c1nc2ccccc2s1` [Compound 7064, Ac-WLFR(SEQ ID NO: 20)-Kbt] the same measures were above 20 µM, 0.001 µM and 0.133 µM.
For `CC(=O)N[C@@H](CO)C(=O)N[C@@H](CCCCN)C(=O)N[C@@H](CC(C)C)C(=O)N[C@@H](CCCNC(=N)N)C(=O)c1nc2ccc(C(=O)NC3CCNCC3)cc2s1` [Compound 7140, Ac-SKLR(SEQ ID NO: 10)-Kbt-4-piperidinylamide] the same measures were 2.95 µM, 0.447 µM and 0.0077 µM.
For the compound `CC(=O)N[C@@H](CCCCN)C(=O)N[C@@H](CCCNC(=N)N)C(=O)N[C@@H](CC(C)C)C(=O)N[C@@H](CCCNC(=N)N)C(=O)c1nc2ccc(C(=O)NCc3cccc(C(=O)O)c3)cc2s1` [Compound 7165, Ac-KRLR(SEQ ID NO: 8)-Kbt-5-COOH], the inhibitory constant (Ki) stood at 1.94 µM on thrombin (setting [1]); 0.0202 µM at Factor Xa (setting [2]); 0.00607 µM on HGFA (Table 6.1, Fluorogenic Assay).
On to `CC(=O)N[C@@H](CCCCN)C(=O)N[C@@H](CCC(N)=O)C(=O)N[C@@H](CC(C)C)C(=O)N[C@@H](CCCNC(=N)N)C(=O)c1nc2ccc(C(=O)N[C@H](C(N)=O)C(C)C)cc2s1` [Compound 7055, Ac-KQLR(SEQ ID NO: 1)-Kbt-Val—NH2] (Ac-KQL[X1]V-NH2), for which the inhibitory constant (Ki) on thrombin (setting [1]) came out at 3.21 µM; at Factor Xa (setting [2]) it was 0.066 µM; on matriptase, 0.007 µM; on hepsin (read-out: hepsin Ki), 0.0003 µM; at HGFA (Table 6.1, Fluorogenic Assay), 0.012 µM; on HGFA, 0.013 µM.
For the compound `CC(=O)N[C@@H](CCCCN)C(=O)N[C@@H](CCCNC(=N)N)C(=O)N[C@@H](CC(C)C)C(=O)N[C@@H](CCCNC(=N)N)C(=O)c1nc2ccc(C(=O)N[C@H](C(N)=O)C(C)C)cc2s1` [Compound 7115, Ac-KRLR(SEQ ID NO: 8)-Kbt-Val—NH2] (Ac-KRL[X1]V-NH2), the inhibition constant Ki is 1.56 µM on thrombin (setting [1]); 0.017 µM on Factor Xa (setting [2]); 0.00741 µM on matriptase (Table 6.1, Fluorogenic Assay); 0.00583 µM at HGFA (Table 6.1, Fluorogenic Assay).
In the case of `CC(=O)N[C@@H](CO)C(=O)N[C@@H](CCCCN)C(=O)N[C@@H](CC(C)C)C(=O)N[C@@H](CCCNC(=N)N)C(=O)c1nc2ccc(C(=O)NCc3ccccc3)cc2s1` [Compound 7139, Ac-SKLR(SEQ ID NO: 10)-Kbt- benzylamide], the inhibition constant (Ki) on thrombin (setting [1]) was determined as 2.47 µM; on Factor Xa (setting [2]) it was 0.19 µM; at HGFA (Table 6.1, Fluorogenic Assay) it was 0.0091 µM.
For `CC(=O)N[C@@H](CO)C(=O)N[C@@H](CCCCN)C(=O)N[C@@H](CC(C)C)C(=O)N[C@@H](CCCNC(=N)N)C(=O)c1nc2ccc(C(=O)N[C@@H](Cc3c[nH]c4ccccc34)C(N)=O)cc2s1` [Compound 7124, Ac-SKLR(SEQ ID NO: 10)-Kbt-Trp— NH2] (Ac-SKL[X1]W-NH2) the same measures were 1.23 µM, 0.163 µM and 0.0158 µM.

What is called Ki is a dissociation constant, usually derived from enzyme kinetics or from competition with a known ligand.
